Results from patent US20060148858A1, “1, 2-Azole derivatives with hypoglycemic and hypolipidemic activity” (priority 2002, published 2006).

Assays:
PPARδ-RXRα heterodimer = molecular target: T1, PPARδ-RXRα heterodimer (Homo sapiens, UniProt Q03181); assay: PPARδ-RXRα heterodimer ligand activity, luciferase reporter in COS-1 transformant (Test Example 4); format: cell-based; details: COS-1 transformant (hPPARδ, hRXRα, reporter), 36-48 hours, concentration for 50% of the maximum fold induction
T1 construct: expressed in transfected cells; host or cells: COS-1
T1 sequence (Q03181 1-441): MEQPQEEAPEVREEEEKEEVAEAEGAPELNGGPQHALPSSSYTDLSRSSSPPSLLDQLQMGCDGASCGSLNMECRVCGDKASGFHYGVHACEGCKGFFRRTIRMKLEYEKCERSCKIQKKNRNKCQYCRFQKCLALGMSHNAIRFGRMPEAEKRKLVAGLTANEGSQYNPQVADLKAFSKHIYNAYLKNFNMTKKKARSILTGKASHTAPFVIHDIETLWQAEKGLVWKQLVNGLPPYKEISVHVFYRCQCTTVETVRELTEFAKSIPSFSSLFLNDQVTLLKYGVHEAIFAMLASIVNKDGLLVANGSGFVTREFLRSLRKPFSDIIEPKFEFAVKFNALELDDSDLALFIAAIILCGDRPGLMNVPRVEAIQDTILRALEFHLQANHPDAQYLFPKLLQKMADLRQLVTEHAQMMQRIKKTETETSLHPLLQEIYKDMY
T1 sequence (P19793 1-462 partner): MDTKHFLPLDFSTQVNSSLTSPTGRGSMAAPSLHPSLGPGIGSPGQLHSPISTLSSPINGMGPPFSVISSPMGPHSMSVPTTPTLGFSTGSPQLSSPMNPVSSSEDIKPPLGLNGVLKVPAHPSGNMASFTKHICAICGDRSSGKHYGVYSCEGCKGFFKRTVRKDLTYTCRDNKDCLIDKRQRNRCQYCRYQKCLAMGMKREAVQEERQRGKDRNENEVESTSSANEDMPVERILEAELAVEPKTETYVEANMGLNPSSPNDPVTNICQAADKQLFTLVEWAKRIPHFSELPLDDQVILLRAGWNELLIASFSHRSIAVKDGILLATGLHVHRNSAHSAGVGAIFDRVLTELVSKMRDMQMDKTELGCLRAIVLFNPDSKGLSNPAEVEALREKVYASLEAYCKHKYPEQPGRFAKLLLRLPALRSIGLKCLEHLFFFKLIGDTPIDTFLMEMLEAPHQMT
Description: The transformant obtained in Reference Example 9a was suspended in DMEM medium (produced by Life Technologies, Inc., USA) containing 0.1% fatty acid-free bovine serum albumin (BSA) (produced by Wako Pure Chemical Industries, Ltd.), and inoculate to each well of a 96-well white plate (produced by Corning Costar Corporation, USA) by 80 μl at 1×10^4 cells/well. Then the test compound (20 μl) was added and cultured at 37° C. under 5% CO2 for 36-48 hours. After removing the medium from the 96-well white plate, 40 μl of PIKKAGENE LT 7.5 (produced by Wako Pure Chemical Industries, Ltd.) diluted twice with HBSS (HANKS' BALANCED SALT SOLUTION)(produced by BIO WHITTAKER Inc., USA), was added. After stirring, the luciferase activity was determined using 1420 ARVO Multilabel Counter (produced by PerkinElmer Inc., USA).
A fold induction was calculated based on the luciferase activity of each test compound by taking the luciferase activity in the non-treatment group as 1. The values of the test compound concentration and the fold induction were analyzed using PRISM (produced by GraphPad Software Inc. USA) to calculate the EC50 values, the effective concentration of a test compound for 50% of the maximum fold induction.
COS-1 cells were inoculated to a 150 cm^2 cell culture flask (produced by Corning Costar Corporation, USA) at the density of 5×10^6 cells/50 ml, and cultured at 37° C. under 5% CO2 conditions for 24 hours. Subsequently, a DNA was introduced into the cell under the condition shown below using Lipofectamine (produced by Invitrogen, USA).
First, Lipofectamine (125 μl), PLUS Reagent (100 μl, produced by Invitrogen, USA), plasmid pMCMVneo-hPPARδ (2.5 μg) obtained in Reference Example 3a, plasmid pMCMVneo-hRXRα (2.5 μg) obtained in Reference Example 4a and reporter plasmid pGL3-4ERPP-TK neo (5 μg) obtained in Reference Example 5a, and pRL-tk (5 μg, produced by Promega, USA) were mixed with opti-MEM (5 ml, produced by Invitrogen, USA) to give a transfection mixture.
Then, the above-mentioned transfection mixture and opti-MEM (20 ml) were added to COS-1 cells washed with opti-MEM, and the cells were cultured at 37° C. under 5% CO2 conditions for 3 hours. DMEM medium (25 ml, produced by Life Technologies, Inc., USA) containing 0.1% fatty acid-free bovine serum albumin (BSA) (produced by Wako Pure Chemical Industries, Ltd.) was added to the obtained COS-1 cells, and the cells were cultured at 37° C. under 5% CO2 conditions for 18-24 hours to give a transformant.

## CCOc1nn(-c2ccc(C(F)(F)F)cn2)cc1CCCOc1c(CC(=O)O)cccc1OC [Example 146, [2-(3-{3-ethoxy-1-[5-(trifluoromethyl)-2-pyridyl]-1H-pyrazol-4-yl}propoxy)-3-methoxyphenyl]acetic acid]
PPARδ-RXRα heterodimer
  EC50: 5.8 nM
other
  melting point: 122 to 123 °C

## CCOc1nn(-c2ccc(C(F)(F)F)cn2)cc1CCCOc1ccc(CCC(=O)O)cc1OC [Example 150, 3-[4-(3-{3-ethoxy-1-[5-(trifluoromethyl)-2-pyridyl]-1H-pyrazol-4-yl}propoxy)-3-methoxyphenyl]propanoic acid]
PPARδ-RXRα heterodimer
  EC50: 2.7 nM
other
  melting point: 131 to 132 °C

## CCOc1cc(OCCCc2cn(-c3ccc(C(F)(F)F)cn3)nc2OC)ccc1CCC(=O)O [Example 152, 3-[2-ethoxy-4-(3-{3-methoxy-1-[5-(trifluoromethyl)-2-pyridyl]-1H-pyrazol-4-yl}propoxy)phenyl]propanoic acid]
PPARδ-RXRα heterodimer
  EC50: 9.9 nM
other
  melting point: 145 to 146 °C

## CCCOc1nn(-c2ccc(C(F)(F)F)cn2)cc1CCCOc1ccc(CCC(=O)O)c(OCC)c1 [Example 153, 3-[2-ethoxy-4-(3-{3-propoxy-1-[5-(trifluoromethyl)-2-pyridyl]-1H-pyrazol-4-yl}propoxy)phenyl]propanoic acid]
PPARδ-RXRα heterodimer
  EC50: 1.9 nM
other
  melting point: 112 to 113 °C

## CCOc1cc(OCCCc2cn(-c3ccc(C(F)(F)F)cn3)nc2OC(C)C)ccc1CCC(=O)O [Example 154, 3-[2-ethoxy-4-(3-{3-isopropoxy-1-[5-(trifluoromethyl)-2-pyridyl]-1H-pyrazol-4-yl}propoxy)phenyl]propanoic acid]
PPARδ-RXRα heterodimer
  EC50: 1.5 nM
other
  melting point: 128 to 129 °C

## CCCCOc1nn(-c2ccc(C(F)(F)F)cn2)cc1CCCOc1ccc(CCC(=O)O)c(OCC)c1 [Example 155, 3-[4-(3-{3-butoxy-1-[5-(trifluoromethyl)-2-pyridyl]-1H-pyrazol-4-yl}propoxy)-2-ethoxyphenyl]propanoic acid]
PPARδ-RXRα heterodimer
  EC50: 3.8 nM
other
  melting point: 102 to 103 °C

## CCCc1nn(-c2ccc(C(F)(F)F)cn2)cc1CCCOc1ccc(C(C)(C)C(=O)O)cc1 [Example 157, 2-methyl-2-[4-(3-{3-propyl-1-[5-(trifluoromethyl)-2-pyridyl]-1H-pyrazol-4-yl}propoxy)phenyl]propanoic acid]
PPARδ-RXRα heterodimer
  EC50: 4.7 nM
other
  melting point: 84 to 85 °C

## CCOc1nn(-c2ccc(C(F)(F)F)cn2)cc1CCCOc1cc(CC(=O)O)cc(OC)c1 [Example 168, [5-(3-{3-ethoxy-1-[5-(trifluoromethyl)-2-pyridyl]-1H-pyrazol-4-yl}propoxy)-3-methoxyphenyl]acetic acid]
PPARδ-RXRα heterodimer
  EC50: 1.6 nM
other
  melting point: 125 to 126 °C

## CCCc1nn(-c2ccc(C(F)(F)F)cn2)cc1CCCOc1cc(CC(=O)O)cc(OC)c1 [Example 169, [3-methoxy-5-(3-{3-propyl-1-[5-(trifluoromethyl)-2-pyridyl]-1H-pyrazol-4-yl}propoxy)phenyl]acetic acid]
PPARδ-RXRα heterodimer
  EC50: 5.7 nM
other
  melting point: 139 to 140 °C

## CCOc1nn(-c2ccc(C(F)(F)F)cc2)cc1CCCOc1ccccc1CC(=O)O [Example 182, [2-(3-{3-ethoxy-1-[4-(trifluoromethyl)phenyl]-1H-pyrazol-4-yl}propoxy)phenyl]acetic acid]
PPARδ-RXRα heterodimer
  EC50: 5.6 nM
other
  melting point: 114 to 115 °C

## CCOc1nn(-c2ccc(C(F)(F)F)cn2)cc1CCCOc1cccc(CC(=O)O)c1F [Example 186, [3-(3-{3-ethoxy-1-[5-(trifluoromethyl)-2-pyridyl]-1H-pyrazol-4-yl}propoxy)-2-fluorophenyl]acetic acid]
PPARδ-RXRα heterodimer
  EC50: 1.9 nM
other
  melting point: 120 to 121 °C

## CCOc1ccc(CC(=O)O)cc1OCCCc1cn(-c2ccc(C(F)(F)F)cn2)nc1C(C)C [Example 200, [4-ethoxy-3-(3-{3-isopropyl-1-[5-(trifluoromethyl)-2-pyridyl]-1H-pyrazol-4-yl}propoxy)phenyl]acetic acid]
PPARδ-RXRα heterodimer
  EC50: 5.9 nM
other
  melting point: 116 to 117 °C

## CCCc1nn(-c2ccc(C(F)(F)F)cn2)cc1CCCOc1cc(CC(=O)O)ccc1OCC [Example 204, [4-ethoxy-3-(3-{3-propyl-1-[5-(trifluoromethyl)-2-pyridyl]-1H-pyrazol-4-yl}propoxy)phenyl]acetic acid]
PPARδ-RXRα heterodimer
  EC50: 4.6 nM
other
  melting point: 124 to 125 °C

## CCCc1cn(CC(=O)O)nc1OCCCc1cn(-c2ccc(C(F)(F)F)cn2)nc1OCC [Example 255, [3-(3-{3-ethoxy-1-[5-(trifluoromethyl)-2-pyridyl]-1H-pyrazol-4-yl}propoxy)-4-propyl-1H-pyrazol-1-yl]acetic acid]
PPARδ-RXRα heterodimer
  EC50: 9.5 nM
other
  melting point: 134 to 135 °C

## CCCc1nn(-c2ccc(C(F)(F)F)cn2)cc1CCCOc1cccc(CC(=O)O)c1F [Example 258, [2-fluoro-3-(3-{3-propyl-1-[5-(trifluoromethyl)-2-pyridyl]-1H-pyrazol-4-yl}propoxy)phenyl]acetic acid]
PPARδ-RXRα heterodimer
  EC50: 5.5 nM
other
  melting point: 109 to 110 °C

## COc1cc(CC(=O)O)ccc1OCCCc1cn(-c2ccc(C(F)(F)F)cn2)nc1C(C)C [Example 278, [3-methoxy-4-(3-{1-[5-(trifluoromethyl)-2-pyridyl]-3-isopropyl-1H-pyrazol-4-yl}propoxy)phenyl]acetic acid]
PPARδ-RXRα heterodimer
  EC50: 6 nM
other
  melting point: 134 to 135 °C

## COc1cc(CCC(=O)O)ccc1OCCCc1cn(-c2ccc(C(F)(F)F)cn2)nc1C(C)C [Example 279, 3-[3-methoxy-4-(3-{1-[5-(trifluoromethyl)-2-pyridyl]-3-isopropyl-1H-pyrazol-4-yl}propoxy)phenyl]propanoic acid]
PPARδ-RXRα heterodimer
  EC50: 5.1 nM
other
  melting point: 118 to 119 °C
